According to US20220193076A1, “METHODS OF TREATING BREAST CANCER WITH TUCATINIB” (Seagen Inc., priority 2019, published 2022):
pKi: −log10 of the molar value.

What was measured:
CYP2C8 [1] = target: T1, CYP2C8 (Homo sapiens, UniProt P10632); assay: Ki determination in pooled human liver microsomes, amodiaquine N-deethylase (Example 5); format: in vitro ADME
T1 sequence (P10632 1-490): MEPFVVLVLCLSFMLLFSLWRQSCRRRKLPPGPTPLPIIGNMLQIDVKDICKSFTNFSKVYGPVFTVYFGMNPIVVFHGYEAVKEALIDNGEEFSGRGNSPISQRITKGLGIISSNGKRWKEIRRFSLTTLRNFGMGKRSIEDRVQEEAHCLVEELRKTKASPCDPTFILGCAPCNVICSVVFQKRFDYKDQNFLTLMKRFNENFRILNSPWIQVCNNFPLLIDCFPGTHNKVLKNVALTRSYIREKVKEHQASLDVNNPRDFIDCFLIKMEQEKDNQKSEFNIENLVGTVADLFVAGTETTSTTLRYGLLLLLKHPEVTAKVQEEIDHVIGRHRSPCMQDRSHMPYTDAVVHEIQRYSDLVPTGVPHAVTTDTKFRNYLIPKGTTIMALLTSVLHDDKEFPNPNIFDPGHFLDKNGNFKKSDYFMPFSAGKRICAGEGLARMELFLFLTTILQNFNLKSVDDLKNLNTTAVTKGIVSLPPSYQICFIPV
Description: The objective of this study was to evaluate in vitro the Ki of tucatinib of the following human hepatic cytochrome P450 (CYP) enzymes (CYP2C8, CYP2C9, and CYP3A4) and UGT1A1. […] Pooled human liver microsomes (HLM) from 150 individuals (79 males and 71 females) were obtained from BioreclamationIVT (Baltimore, Md.) and stored at approximately −70° C. The microsomes were characterized by the supplier for total protein and selected cytochrome P450 activities. […] The final organic solvent contribution was ≤1%. Incubations were terminated by the addition of chilled acetonitrile containing a stable isotope-labeled internal standard. […] Samples were analyzed by liquid chromatography with tandem mass spectrometry (LC-MS/MS). Analyte concentrations were quantified by LC-MS/MS and interpolated from standard curves of authentic analyte. […] Activities were calculated based on analyte concentration, incubation time, and protein concentration. Enzymatic activity (pmol/minute/mg protein) was expressed as the formation of the analyte per final protein concentration per incubation time. Activity remaining was expressed as the enzymatic activity at each concentration point of the test article normalized by the solvent control mean activity. […]

CYP2C8 [2] = target: T1, CYP2C8; assay: Example 2 Part D: effect of tucatinib on PK of substrate probe repaglinide; format: in vivo; set-up: endogenous in cells; host or cells: healthy human subjects, in vivo; settings: steady-state tucatinib 300 mg BID, probe repaglinide
Description: A Phase 1, open-label, fixed-sequence, 5-part, drug-drug interaction study of tucatinib was conducted to evaluate the effects of CYP3A4 and CYP2C8 inhibition and induction on the pharmacokinetics of tucatinib and to evaluate the effects of tucatinib on the pharmacokinetics of substrates of CYP3A4, CYP2C8, CYP2C9, and P-glycoprotein in healthy male and female subjects.
Part B evaluates the effect of rifampin, a strong inducer of CYP3A4 and CYP2C8, on the PK of tucatinib. […] Part E evaluates the effect of tucatinib on the PK of a substrate probe of the transporter P-gp (digoxin). […] For Parts A, B, and C, tucatinib is given as a single oral dose because evaluating plasma exposures after a single dose of tucatinib is expected to provide an appropriate assessment of the impact of the probe drugs on tucatinib PK. In Parts D and E, tucatinib is given as a multiple-dosing regimen in order to examine its effects on probe drugs at steady state, at which maximal inhibition of CYP2C8, CYP2C9, CYP3A4, and P-gp by tucatinib should be achieved.
Secondary objectives of the study included: (1) assessing the safety and tolerability of tucatinib when administered alone and when co-administered with substrate probes of CYP2C8, CYP2C9, and CYP3A4; and (2) assessing the single-dose PK of tucatinib and assessing the multiple-dose, steady-state PK of tucatinib alone and in the presence of substrate probes of CYP2C8, CYP2C9, and CYP3A4 in healthy subjects.
They were discharged on Day 14 after completion of the in-patient assessments.
On Day 1, each subject received a single oral dose of 0.5 mg of repaglinide. […] From Day 4 to Day 13, each subject received oral doses of 300 mg of tucatinib, twice daily (BID). On Day 11, each subject received a single oral dose of repaglinide. […] Tucatinib was provided as 150-mg tablets (2 tablets for the 300-mg dose), repaglinide was provided as 0.5-mg tablets, olbutamide was provided as 500-mg tablets, and midazolam was provided as a syrup (2 mg/mL; 1 mL syrup for the 2-mg dose). Tucatinib, repaglinide, olbutamide and midazolam were administered before meals preceded by an at least 8-hour overnight fast.
Other noncompartmental PK parameters may be reported. Additionally, blood samples for determination of plasma concentrations of tucatinib and ONT-993 were collected at the time points indicated in FIG. 8. […] A single genotyping blood sample was collected to assess possible effect of CYP polymorphisms or other genetic polymorphisms on the magnitude of drug interactions of tucatinib with probe drugs and substrates.

CYP3A4 = CYP3A4 (Homo sapiens, UniProt P08684); assay: Example 2 Part A: effect of strong CYP3A4 inhibitor itraconazole on PK of tucatinib; format: in vivo; set-up: endogenous in cells; host or cells: healthy human subjects, in vivo; settings: tucatinib 300 mg single dose in combination with itraconazole vs tucatinib alone
CYP3A4, sequence (P08684 whole entry): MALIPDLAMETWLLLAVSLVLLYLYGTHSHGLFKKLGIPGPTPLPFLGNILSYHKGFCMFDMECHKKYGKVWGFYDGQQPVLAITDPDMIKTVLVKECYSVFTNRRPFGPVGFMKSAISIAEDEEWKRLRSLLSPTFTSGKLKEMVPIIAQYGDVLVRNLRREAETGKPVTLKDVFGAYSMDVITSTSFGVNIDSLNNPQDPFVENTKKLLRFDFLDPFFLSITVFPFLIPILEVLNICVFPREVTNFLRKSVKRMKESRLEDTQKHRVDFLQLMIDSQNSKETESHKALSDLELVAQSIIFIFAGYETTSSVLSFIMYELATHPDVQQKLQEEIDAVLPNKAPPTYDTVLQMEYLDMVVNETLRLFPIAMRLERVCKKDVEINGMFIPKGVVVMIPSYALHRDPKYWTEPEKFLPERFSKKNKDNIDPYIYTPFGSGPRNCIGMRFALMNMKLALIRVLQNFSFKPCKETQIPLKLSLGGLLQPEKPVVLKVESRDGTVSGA
Description: A primary objective of the study is to assess the effect of a strong CYP3A4 inhibitor (itraconazole) on the single-dose PK of tucatinib. […] They were discharged on Day 8 after completion of the in-patient assessments. […] On Day 3, each subject received oral doses of 200 mg of itraconazole, twice daily (BID). From Day 4 to Day 7, each subject received single oral doses of 200 mg of itraconazole once daily (QD). Itraconazole was administered in the fed state (within 5 minutes after completion of meals). On Day 6, each subject received a single oral dose of 300 mg of tucatinib at about 2 hours after the completion of breakfast and after itraconazole in the morning. […] Other noncompartmental PK parameters may be reported. Additionally, blood samples were collected for determination of trough levels of itraconazole prior to morning dosing on the days indicated in FIG. 5.

Cc1cc(Nc2ncnc3ccc(NC4=NC(C)(C)CO4)cc23)ccc1Oc1ccn2ncnc2c1 [tucatinib]
Inhibition mechanism, CYP2C8 (CYP2C8 [1]): competitive inhibition | pKi (CYP2C8 [1]; marker substrate amodiaquine): 6.77 | Inhibition of CYP2C8 in vivo (CYP2C8 [2]): weak inhibitor | Geometric LS mean ratio (90% CI), AUC0-∞ (CYP3A4): 1.34 (1.26, 1.43) | Geometric LS mean ratio (90% CI), AUClast (CYP3A4): 1.33 (1.25, 1.41) | Geometric LS mean ratio (90% CI), Cmax (CYP3A4): 1.32 (1.23, 1.42)
